From patent publication US20240057599A1, “METHODS FOR IMPROVING FRUIT QUALITY” (The State of Israel, Ministry of Agriculture & Rural …, priority 2021, published 2024)

Tests used:
Assay type in all cases: in vivo
[1] = tested on: Red (Memphis) and white (Sifra) potato tubers; assay: Cut curing in potato tuber; details: 8 mM dip; for weight loss after cutting: statistically significant 14 days post-treatment
Experimental: Red (Memphis) and white (Sifra) potato tubers were dipped in water or 8 mM Phe for 1 min, and dried. The tubers were stored at 20° C. for 2 days. Each tuber was cut (2 cm length, 2 cm deep, 2 mm wide) in 3 spots. One week and 2 weeks later the curing of the cut was evaluated on a scale of 0-3, and the weight loss was measured.
Red (Memphis) and white (Sifra) potato tubers were dipped in water or 8 mM Phe for 1 min, and dried. The tubers were stored at 20° C. for 2 days. Each tuber was cut (2 cm length, 2 cm deep, 2 mm wide). Two weeks later the superficial and internal curing were documented.

[2] = tested on: Mango fruits (Tali and Shelly); assay: ROS accumulation in injured mango fruits; details: postharvest 8 mM; injured fruit; vs non-treated injured fruit
Experimental: FIGS. 31A-31C include a fluorescent micrograph (31A) and vertical bar graphs showing that postharvest treatment of Mango fruits (Tali and Shelly) with 8 mM phenylalanine reduces accumulation of reactive oxygen species (ROS) in the peel (31B) and pulp (31C) of treated injured fruits compared to control injured fruit (non-treated). […] (31A) Visualization conducted 20 minutes post induced injury. (31B-31C) ROS quantification 7 days post induced injury.
Further, the inventors have shown that postharvest treatment as disclosed herein reduces ROS (reactive oxygen species) accumulation in fruit injured postharvest (FIG. 31).

Starking and Anna apples = assay: Enzymatic browning of sliced apple fruits after preharvest treatment; details: 0.12%
Excerpt: FIGS. 29A-29E include micrographs showing the effect of preharvest treatment on decay parameters in Starking (29A-29B) and Anna (29C-29E) apples. In control fruits, enzymatic browning (i.e., oxidation) was highly evident (29A, and 29C).
Further, the inventors have examined the effect of preharvest treatment with phenylalanine on enzymatic browning, i.e., oxidation, in a fruit.

mango fruits [3] = assay: Brix values of mango fruits and juice
Experimental: (§1) Mango—unripe Mango fruits were harvested and dipped in 4-8 mM phenylalanine for a period of 30 seconds. Fruits were stored at 22° C. until ripening (Days 11-15), wherein sensory analysis by a panel of 20 tasters was performed. Further, Brix, and % acidity (calibrated according to citric acid), and firmness (by Newton units) values were determined in 5 different fruits.

Mango (Tali) fruits = assay: Aroma-associated VOC levels in dipped mango fruits; details: pulp; dipped in 8 mM; 11 days at 22° C.; vs non-treated
Experimental: FIGS. 30A-30G include vertical bar graphs showing that a […] treatment of mango fruits with 8 mM phenylalanine increases the levels of aroma-associated VOCs. Mango (Tali) fruits were dipped in 8 mM phenylalanine and after 11 days of storage at 22° C. the profile of volatiles in the fruit […] was examined. Concentration of the following volatile aroma substances was examined (presented as μg/gFW): (30A) α-Pinene; (30B) 3-Carene; (30C) D-Limonene; (30D) Gurjunene; (30E) α-Terpinolene; (30F) α-Phellandrene; and (30G) Caryophyllene. Further, the inventors have shown that postharvest treatment as disclosed herein improves fruit aroma. The investors have dipped Mango fruits, and 11 days after storage at 22° C., the levels of aroma-associated VOCs were determined. Indeed, postharvest treatment with an effective amount of phenylalanine induced a significant increase in the levels of all tested VOCs (FIG. 30).

[4] = tested on: Red (Memphis) and white (Sifra) potato tubers; assay: Scratch curing in potato tuber; details: for scratch curing (scale of 0-3): 8 mM dip 1 min
Experimental: Red (Memphis) and white (Sifra) potato tubers were dipped in water or 8 mM Phe for 1 min, and dried. The tubers were stored at 20° C. for 2 days. Each tuber was scratched (2 cm length, and 1 cm wide) in 3 spots. One week and 2 weeks later the curing of the scratch was evaluated on a scale of 0-3, the recovery of the red color was evaluated on a scale of 0-3, and the weight loss was measured.

apple fruits (Jonathan) [5] = assay: Sensory analysis and Brix of apple fruits and juice after preharvest treatment
Experimental: Apple—Apple trees were treated with: 8 mM phenylalanine 1 week or 2 weeks before harvest; or with 0.2 prohydrojasmon (also known as ‘blush’). Fruits were harvested from the external area of the tree. After harvest, fruits were stored for 3 months at 0° C., wherein sensory analysis by a panel of 20 tasters was performed, for both slices fruit and for juice extracted therefrom. Brix values were also determined.

[6] = tested on: White (Sifra) potato tubers; assay: Lignin production at the cut (Calcofluor white fluorescence); details: 8 mM dip, one-week post-treatment, vs control
Experimental: White (Sifra) potato tubers were dipped in water or 8 mM Phe for 1 min, and dried. The tubers were stored at 20° C. for 2 days. Each tuber was cut (2 cm length, 2 cm deep, 2 mm wide). One week later the curing of the cut was documented.

apple fruits (Jonathan) [7] = assay: Red coloration of apple fruits after preharvest treatment; details: 8 mM, 1 or 2 weeks preharvest
Experimental: (§2) Mango or apple trees were treated 1 week or 2 weeks pre-harvest with either 8 mM of phenylalanine or with 0.2% prohydrojasmon ('blush'). Fruits were harvested from the external area of the tree, wherein fruits are exposed to the sunlight (photon flux of 1,500±200 μmol·m^-2 sec^-1). After harvest: (a) mango fruits were stored for 3 weeks at 12° C., and for another week at 22° C. (e.g., shelf life); and (b) apple fruits were stored for 3 months at 0° C., and for another week at 22° C. (e.g., shelf life). Surface area of the red color was evaluated as percentage, and red intensity was evaluated on a scale of 0-5. Each mango fruit was assessed for percentage of red surface area on fruit for each treatment at different time points (harvest, after cold storage at 12° C. and after shelf life at 22° C.). Similarly, red intensity was evaluated for each mango fruit using a visual rating scale, where 0=no red color, 1=faint red color, and 5=very intense red color. Fifty fruit were evaluated per treatment. The skin color (hue) of 15 mango fruit was measured for each treatment using a CR-400/410 Chromometer (Konicka Minolta, Osaka, Japan) on the equatorial line of each fruit at the […] point. […] Chlorophyll, anthocyanin, and flavonoid content were measured by the Multiplex III fluorescence detector (Force A, Orsay, France), which consists of 12 fluorescence signals. […]

[8] = tested on: Muscat grapes and Petit Verdot grapes; assay: Sensory analysis and Brix of grapes and juice after preharvest treatment; details: for Brix values of grapes and/or juice: 8 mM preharvest, vs control
Experimental: Grapes—Muscat grapes and Petit Verdot grapes were treated with 8 mM phenylalanine for: (i) 1 week or 2 weeks; and (ii) 1 week, 2 weeks, or 3 weeks, before harvest, and their combination, respectively. Sensory analysis by a panel of 20 tasters was performed, for the juice extracted from the fruits, and Brix, and % acidity (calibrated according to citric acid) values were also determined. In the case of muscat grapes, intact fruits were also analyzed (e.g., by the panel, Brix, and % acidity).

[9] = tested on: Apple (Starking Delicious) fruits; assay: Preharvest spray, red coloration and TSS in apple
Experimental: FIGS. 27A-27D include vertical bar graphs showing the effect of preharvest spray treatment on red coloration and TSS in Apple (Starking Delicious) fruits. […] In 27D, TSS was evaluated at time 0 (TO), after cold storage (CS), and after time at shelf conditions (e.g., shelf-life (SL)).
(§3) Further, improvement of fruit coloration was also shown in grapes (FIG. 28).

Mango (Shelly) fruits = assay: Preharvest spray, red coloration and TSS in mango
Excerpt: FIGS. 26A-26C include vertical bar graphs showing the effect of preharvest spray treatment on red coloration and TSS in Mango (Shelly) fruits. Red color surface (%; 26A), red color intensity (26B) and TSS (% Brix; 26C) were examined under preharvest treatments with 0.01%, 0.06%, […], or 0.24% phenylalanine (Phe).
as §3

grapes (Skarlota) = assay: Preharvest spray, red coloration in grapes
Excerpt: FIG. 28 includes a vertical bar graph showing the effect of preharvest spray treatment on red coloration (represented as index 0-5) in grapes (Skarlota). […] Further, improvement of fruit coloration was also shown in grapes (FIG. 28).

mango fruits [10] = assay: Red coloration of mango fruits after preharvest treatment; details: Shelly and Kent; 8 mM, 1 or 2 weeks preharvest
Experimental: as §2

mango fruits [11] = assay: Sensory analysis by a panel of 20 tasters, mango fruits and juice; details: for quality of juice extracted from mango fruits: preharvest application, 2020
Experimental: as §1

[12] = white Muscat grapes, preharvest application, 2020
[13] = 0.12% (~6 mM) preharvest spray, compared to 0.01%
[14] = preharvest, 0.06% by weight (~3 mM) or more

## N[C@@H](Cc1ccccc1)C(=O)O [phenylalanine]
[1]; Memphis, 14 days
  cut curing (scale of 0-3): to a less extent
[1]; Memphis
  weight loss after cutting: reduced
[1]; Memphis, two weeks later
  internal curing of the cut: improved compared to control
[1]; Sifra, 7 and 14 days post-treatment, vs control
  cut curing (scale of 0-3): improved significantly
[1]; Sifra
  weight loss after cutting: reduced
[1]; Sifra, two weeks later
  superficial and internal curing of the cut: improved compared to control
[2]
  ROS accumulation in the peel: substantially less ROS
  ROS accumulation in the pulp: substantially less ROS
Starking and Anna apples; Anna apples, 2 weeks or 4 weeks preharvest
  enzymatic browning (oxidation): effective in reducing enzymatic browning
Starking and Anna apples; Starking apples, 2 weeks preharvest
  enzymatic browning (oxidation): effective in reducing enzymatic browning
Mango fruits [3]; juice of treated mango fruits vs control (FIGS. 8, 13)
  Brix values in juice extracted from mango fruits: greater than the control
Mango fruits [3]; treated mango fruits vs control (FIGS. 1-3, 7, 12)
  Brix values in mango fruits: greater than the control
Mango (Tali) fruits
  level of 3-Carene: significantly elevated
  level of Caryophyllene: significantly elevated
  level of D-Limonene: significantly elevated
  level of Gurjunene: significantly elevated
  level of α-Phellandrene: significantly elevated
  level of α-Pinene: significantly elevated
  level of α-Terpinolene: significantly elevated
[4]; Memphis (red), 8 mM dip
  weight loss after scratching: reduced
[4]; Memphis (red), 7 and 14 days post-treatment
  scratch curing (scale of 0-3): significantly improved
[4]; Memphis (red), 8 mM dip, 7 and 14 days post-treatment
  color curing, recovery of the red color (scale of 0-3): significantly improved
[4]; Sifra (white), 7 and 14 days post-treatment
  scratch curing (scale of 0-3): significantly improved
[4]; Sifra (white), 8 mM dip, statistically significant
  weight loss after scratching: reduced
Apple fruits (Jonathan) [5]; 8 mM preharvest, vs control
  Brix values in apple fruits: greater than the control
Apple fruits (Jonathan) [5]; tasters' panel, 8 mM 1 or 2 weeks preharvest, after 3 months at 0° C.
  sensory quality of apple fruits and/or juice (sweeter, less acidic, better aroma): better quality
Apple fruits (Jonathan) [5]; tasters' panel, 8 mM preharvest
  texture of apple fruits: better texture
[6]
  lignin production (fluorescent intensity): increased lignin production
Apple fruits (Jonathan) [7]
  formation of red coloration in apple fruits: effectively induce the formation of red coloration
[8]; Muscat grapes
  Brix values of grapes and/or juice: increased Brix values
[8]; Petit Verdot grapes
  Brix values of grapes and/or juice: increased Brix values
[8]; Petit Verdot grapes, preharvest application, 2020
  quality of juice extracted from grapes: quality improvement
[8]; [12]
  flavor of grapes: flavor improvement
  quality of juice extracted from grapes: quality improvement
[9]; 0.01% preharvest spray
  TSS (% Brix): comparable to negative control
  red coloration (red color surface %, red color intensity): comparable to negative control
[9]; [13]
  TSS (% Brix): substantially more effective
  red coloration (red color surface %, red color intensity): substantially more effective
Mango (Shelly) fruits; 0.01% (~0.5 mM) preharvest spray
  red coloration (red color surface %, red color intensity): ineffective
Mango (Shelly) fruits; 0.01% preharvest spray
  TSS (% Brix): no contribution
Mango (Shelly) fruits; [14]
  TSS: substantially improved
  fruit coloration: substantially improved
Grapes (Skarlota); 0.01% (~0.5 mM) preharvest
  red coloration: ineffective
Grapes (Skarlota); [13]
  red color index (0-5): substantially more effective
Mango fruits [10]
  formation of red coloration in mango fruits: effectively induce the formation of red coloration
Mango fruits [11]; Kent
  quality of juice extracted from mango fruits: quality improvement
Mango fruits [11]; Shelly
  quality of juice extracted from mango fruits: quality improvement
Mango fruits [11]; tasters' panel, postharvest dip 4-8 mM (FIGS. 1-3) or preharvest application (FIGS. 7, 12), vs control
  sensory quality of mango fruits (sweeter, less acidic, better aroma, firmness, general appreciation): better quality
